Patent US8450313B2, “2,3-diaryl- or heteroaryl-substituted 1,1,1-trifluoro-2-hydroxypropyl compounds” (Hoffmann-La Roche Inc., priority 2009, dated 2013)

Molecular target: T1, full length human recombinant glucocorticoid receptor (Homo sapiens, UniProt P04150)
T1 construct: It contains some partially purified full length human recombinant glucocorticoid receptor; purchased Panvera/Invitrogen PV4302
T1 sequence (P04150 1-777): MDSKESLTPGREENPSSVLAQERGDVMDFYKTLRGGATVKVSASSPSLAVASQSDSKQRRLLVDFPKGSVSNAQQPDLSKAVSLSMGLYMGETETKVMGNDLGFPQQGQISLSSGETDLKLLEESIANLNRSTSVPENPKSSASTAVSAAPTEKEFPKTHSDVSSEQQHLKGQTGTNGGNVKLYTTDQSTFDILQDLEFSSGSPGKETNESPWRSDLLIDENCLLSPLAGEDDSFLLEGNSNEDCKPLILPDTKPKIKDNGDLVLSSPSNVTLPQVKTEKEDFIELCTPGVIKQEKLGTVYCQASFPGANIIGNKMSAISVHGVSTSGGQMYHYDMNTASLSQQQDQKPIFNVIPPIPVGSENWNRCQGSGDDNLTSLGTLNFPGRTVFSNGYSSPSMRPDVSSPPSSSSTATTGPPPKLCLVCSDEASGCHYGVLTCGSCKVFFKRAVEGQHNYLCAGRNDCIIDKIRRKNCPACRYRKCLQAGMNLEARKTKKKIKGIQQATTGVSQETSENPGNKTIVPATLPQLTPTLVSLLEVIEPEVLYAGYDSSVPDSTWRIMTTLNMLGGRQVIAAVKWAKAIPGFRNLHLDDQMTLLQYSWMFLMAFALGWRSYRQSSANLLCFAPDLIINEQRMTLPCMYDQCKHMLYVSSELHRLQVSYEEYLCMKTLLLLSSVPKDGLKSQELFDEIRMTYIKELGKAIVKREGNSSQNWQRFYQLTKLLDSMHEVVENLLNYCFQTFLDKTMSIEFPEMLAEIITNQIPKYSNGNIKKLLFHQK
Experiment: Glucocorticoid Receptor Binding Assay (Glucocorticoid Receptor Competitor Assay far red kit, fluorescence polarization)
Settings: competition with fluorescent GR ligand Fluormone GS Far Red, 3 hours at 22° C., pH 7.4; Ki calculated from IC50 by Cheng-Prusoff
Experimental: Glucocorticoid Receptor Binding Assay
The ability of the substances to bind to the glucocorticoid receptor was determined with the help of a commercial Glucocorticoid Receptor Competitor Assay far red kit provided by Panvera/Invitrogen (PV4302). This kit is used as provided by the supplier. It contains some partially purified full length human recombinant glucocorticoid receptor, a coactivator related GR stabilizing peptide, a tight-binding fluorescent GR ligand Fluormone™ GS Far Red as labeled tracer and a screening buffer. All reagents are prepared and the assay is run according to the recommendations of the kit manufacturer.
Briefly, the GR stabilizing peptide and the human recombinant glucocorticoid receptor are both diluted with the screening buffer (pH 7.4) and are gently mixed (no vortexing) just before the assay and kept on ice until use. The fluorescent-labeled ligand is also diluted with the screening buffer just before the assay and kept on ice until use. The substances to test are pre-diluted in pure DMSO then some water is added to get an intermediate 4.2% DMSO stock solution. Ten microliter of the intermediate stock solution is gently mixed with 5 μA of diluted fluorescent-labeled ligand and 5 μl of diluted human recombinant glucocorticoid receptor in a 384-well plate (low volume, ultraclear, glass plate from Greiner ref 788896). The plate is centrifuged, sealed and incubated for 3 hours at 22° C. in the dark. The polarized fluorescence is measured with a Zeiss-HTS reader or any equivalent equipment (610-660 nm).
All compounds were tested to determine IC50 in a serial dilution experiment. The concentration at which 50% inhibition of the fluorescent GR ligand Fluormone™ GS Far Red is obtained (the IC50) is determined after fitting with a sigmoidal dose-response model of a plot of the logarithm of the concentration versus percent inhibition measured for the different concentrations. Ki's were calculated from IC50 based on Cheng-Prusoff equation (Cheng, Y, Prusoff, W H (1973) Biochem Pharmacol 22, 3099-3108): Ki=IC50/[1+D/Kd] wherein D is the concentration of the fluorescent ligand and Kd is the binding constant for the fluorescent ligand binding to the receptor under the conditions used in the competition experiment.

| Structure (SMILES) | Ki [nM] |
| --- | --- |
| COC(=O)c1ccc(-c2ccc([C@H](C)[C@](O)(c3ccc4c(c3)N(C)C(=O)CO4)C(F)(F)F)c(Cl)c2)cc1F (racemic) [Example 25, 3′-Chloro-3-fluoro-4′-[3,3,3-trifluoro-2-hydroxy-1-methyl-2-(4-methyl-3-oxo-3,4-dihydro-2H-benzo[1,4]oxazin-6-yl)-propyl]-biphenyl-4-carboxylic acid methyl ester] | 2.8 |
| C[C@H](c1ccc(Oc2ccc(C(=O)O)c(Cl)c2)cc1Cl)[C@@](O)(c1ccc2c(c1)N(C)C(=O)CO2)C(F)(F)F (racemic) [Example 59, 2-Chloro-4-{3-chloro-4-[3,3,3-trifluoro-2-hydroxy-1-methyl-2-(4-methyl-3-oxo-3,4-dihydro-2H-benzo[1,4]oxazin-6-yl)-propyl]-phenoxy}-benzoic acid] | 1 |
| C[C@H](c1ccc(Oc2ccc(C(=O)O)cc2)cc1Cl)[C@@](O)(c1ccc2c(c1)N(C)C(=O)CO2)C(F)(F)F (racemic) [Example 60, 4-{3-Chloro-4-[3,3,3-trifluoro-2-hydroxy-1-methyl-2-(4-methyl-3-oxo-3,4-dihydro-2H-benzo[1,4]oxazin-6-yl)-propyl]-phenoxy}-benzoic acid] | 2.3 |
| C[C@H](c1ccc(-c2ccc(C(=O)O)c(F)c2)cc1Cl)[C@@](O)(c1ccc2oc(=O)n(C)c2c1)C(F)(F)F (racemic) [Example 118, 3′-Chloro-3-fluoro-4′-[3,3,3-trifluoro-2-hydroxy-1-methyl-2-(3-methyl-2-oxo-2,3-dihydro-benzooxazol-5-yl)-propyl]-biphenyl-4-carboxylic acid] | 1 |
| CCOC(=O)C(C)(C)Oc1ccc([C@@H](C)[C@@](O)(c2ccc3c(c2)N(C)C(=O)CO3)C(F)(F)F)c(Cl)c1 (racemic) [Example 206, 2-{3-Chloro-4-[3,3,3-trifluoro-2-hydroxy-1-methyl-2-(4-methyl-3-oxo-3,4-dihydro-2H-benzo[1,4]oxazin-6-yl)-propyl]-phenoxy}-2-methyl-propionic acid ethyl ester] | 6.2 |
| COC(=O)c1cnc(Oc2ccc([C@@H](C)[C@@](O)(c3ccc4c(c3)N(C)C(=O)CO4)C(F)(F)F)c(Cl)c2)c(Cl)c1 (racemic) [Example 212, 5-Chloro-6-{3-chloro-4-[3,3,3-trifluoro-2-hydroxy-1-methyl-2-(4-methyl-3-oxo-3,4-dihydro-2H-benzo[1,4]oxazin-6-yl)-propyl]-phenoxy}-nicotinic acid methyl ester] | 1 |
| C[C@H](c1ccc(Oc2ncc(C(=O)O)cc2Cl)cc1Cl)[C@@](O)(c1ccc2c(c1)N(C)C(=O)CO2)C(F)(F)F (racemic) [Example 213, 5-Chloro-6-{3-chloro-4-[3,3,3-trifluoro-2-hydroxy-1-methyl-2-(4-methyl-3-oxo-3,4-dihydro-2H-benzo[1,4]oxazin-6-yl)-propyl]-phenoxy}-nicotinic acid] | 1.7 |
| CCOC(=O)c1ccc(Oc2ccc([C@@H](C)[C@@](O)(c3ccc4c(c3)N(C)C(=O)CO4)C(F)(F)F)c(Cl)c2)nc1C(F)(F)F (racemic) [Example 214, 6-{3-Chloro-4-[3,3,3-trifluoro-2-hydroxy-1-methyl-2-(4-methyl-3-oxo-3,4-dihydro-2H-benzo[1,4]oxazin-6-yl)-propyl]-phenoxy}-2-trifluoromethyl-nicotinic acid ethyl ester] | 4.1 |
| COC(=O)c1cnc(Oc2ccc([C@@H](C)[C@@](O)(c3ccc4c(c3)N(C)C(=O)CO4)C(F)(F)F)c(Cl)c2)cn1 (racemic) [Example 227, 5-{3-Chloro-4-[3,3,3-trifluoro-2-hydroxy-1-methyl-2-(4-methyl-3-oxo-3,4-dihydro-2H-benzo[1,4]oxazin-6-yl)-propyl]-phenoxy}-pyrazine-2-carboxylic acid methyl ester] | 3 |

More lines, in order of falling Ki, values ahead:

| Ki [nM] | Structure (SMILES) |
| --- | --- |
| 97.9 | CCN1C(=O)COc2ccc([C@](O)([C@H](C)c3ccc(-c4ccc(C(=O)O)c(Cl)c4)cc3Cl)C(F)(F)F)cc21 (racemic) [Example 64, 3,3′-Dichloro-4′-[2-(4-ethyl-3-oxo-3,4-dihydro-2H-benzo[1,4]oxazin-6-yl)-3,3,3-trifluoro-2-hydroxy-1-methyl-propyl]-biphenyl-4-carboxylic acid] |
| 7.8 | COC(=O)c1cnc(Oc2ccc([C@@H](C)[C@@](O)(c3ccc4c(c3)N(C)C(=O)CO4)C(F)(F)F)c(Cl)c2)nc1C(F)(F)F (racemic) [Example 225, 2-{3-Chloro-4-[3,3,3-trifluoro-2-hydroxy-1-methyl-2-(4-methyl-3-oxo-3,4-dihydro-2H-benzo[1,4]oxazin-6-yl)-propyl]-phenoxy}-4-trifluoromethyl-pyrimidine-5-carboxylic acid methyl ester] |
| 5.9 | COC(=O)c1cnc(Oc2ccc([C@@H](C)[C@@](O)(c3ccc4c(c3)N(C)C(=O)CO4)C(F)(F)F)c(Cl)c2)nc1 (racemic) [Example 226, 2-{3-Chloro-4-[3,3,3-trifluoro-2-hydroxy-1-methyl-2-(4-methyl-3-oxo-3,4-dihydro-2H-benzo[1,4]oxazin-6-yl)-propyl]-phenoxy}-pyrimidine-5-carboxylic acid methyl ester] |
| 1.5 | COC(=O)c1cnc(Oc2ccc([C@@H](C)[C@@](O)(c3ccc4c(c3)N(C)C(=O)CO4)C(F)(F)F)c(Cl)c2)cc1Cl (racemic) [Example 210, 4-Chloro-6-{3-chloro-4-[3,3,3-trifluoro-2-hydroxy-1-methyl-2-(4-methyl-3-oxo-3,4-dihydro-2H-benzo[1,4]oxazin-6-yl)-propyl]-phenoxy}-nicotinic acid methyl ester] |
| 1.1 | C[C@H](c1ccc(Oc2ccc(C(=O)O)c(C(F)(F)F)c2)cc1Cl)[C@@](O)(c1ccc2c(c1)N(C)C(=O)CO2)C(F)(F)F (racemic) [Example 220, 4-{3-Chloro-4-[3,3,3-trifluoro-2-hydroxy-1-methyl-2-(4-methyl-3-oxo-3,4-dihydro-2H-benzo[1,4]oxazin-6-yl)-propyl]-phenoxy}-2-trifluoromethyl-benzoic acid] |
| 1 | C[C@H](c1ccc(Oc2cccc(C(=O)O)c2)cc1Cl)[C@@](O)(c1ccc2c(c1)N(C)C(=O)CO2)C(F)(F)F (racemic) [Example 61, 3-{3-Chloro-4-[3,3,3-trifluoro-2-hydroxy-1-methyl-2-(4-methyl-3-oxo-3,4-dihydro-2H-benzo[1,4]oxazin-6-yl)-propyl]-phenoxy}-benzoic acid] |
| 0.8 | C[C@H](c1ccc(Oc2ccc(C(=O)O)c(Cl)n2)cc1Cl)[C@@](O)(c1ccc2c(c1)N(C)C(=O)CO2)C(F)(F)F (racemic) [Example 63, 2-Chloro-6-{3-chloro-4-[3,3,3-trifluoro-2-hydroxy-1-methyl-2-(4-methyl-3-oxo-3,4-dihydro-2H-benzo[1,4]oxazin-6-yl)-propyl]-phenoxy}-nicotinic acid] |
| 0.3 | C[C@H](c1ccc(Oc2ccc(F)c(C(=O)O)c2)cc1Cl)[C@@](O)(c1ccc2c(c1)N(C)C(=O)CO2)C(F)(F)F (racemic) [Example 56, 5-{3-Chloro-4-[3,3,3-trifluoro-2-hydroxy-1-methyl-2-(4-methyl-3-oxo-3,4-dihydro-2H-benzo[1,4]oxazin-6-yl)-propyl]-phenoxy}-2-fluoro-benzoic acid] |
| 0.3 | C[C@H](c1ccc(Oc2ccc(Cl)c(C(=O)O)c2)cc1Cl)[C@@](O)(c1ccc2c(c1)N(C)C(=O)CO2)C(F)(F)F (racemic) [Example 58, 2-Chloro-5-{3-chloro-4-[3,3,3-trifluoro-2-hydroxy-1-methyl-2-(4-methyl-3-oxo-3,4-dihydro-2H-benzo[1,4]oxazin-6-yl)-propyl]-phenoxy}-benzoic acid] |
